From US9657351B2, “MRNA-based gene expression for personalizing patient cancer therapy with an MDM2 antagonist” (Hoffmann-La Roche Inc., priority 2013, dated 2017)

Key:
Assay in all cases: COMPOUND A In Vitro Assay
Assay type in all cases: cell-based
[1] = tested on: SK-LU-1; conditions: Homo sapiens, Lung, TP53 Mutant
Excerpt: (§1) To generate an MDM2 antagonist therapy predictive signature, the response of MDM2 antagonist therapy in vitro with gene expression profiling (FIG. 1) is combined. A bank of 287 human cancer cell lines, collectively termed the Cell Lines for Oncology/Chugai ACcumulative Tumour EncycLopedia (CELLO/CACTEL), representing a broad array of diverse human cancer tumor types are subject to evaluation using several high-throughput genomic technology platforms. The mutational status of nucleic acids from each cell line is determined by exome sequencing. Messenger RNA (mRNA) expression levels at baseline, prior to MDM2 antagonist therapy, are obtained via RNA sequencing. MDM2 antagonist therapy COMPOUND A, sometimes referred to herein as RG7112, responses are obtained by assays known to those skilled in the art such as RNA sequencing and microarray measurement using Gene Chip Human Genome U133 Plus 2.0 Array. The MDM2 therapy responses are obtained by high throughout screening assays. Depending on their responses to COMPOUND A these cell lines are classified as either sensitive, defined as IC50<=1, or resistant, defined as IC50>=10.
(§2) 281 cells are treated with MDM2 antagonists and the IC50 (therapy response) is generated. The cell lines span a broad range of tumor cell types of derivation.

[2] = tested on: 5637; conditions: Homo sapiens, Urinary, bladder, TP53 Mutant
Excerpt: as §1, §2

[3] = tested on: NB-4; conditions: Homo sapiens, Myeloblast, TP53 Mutant
Excerpt: as §1, §2

[4] = tested on: KMS-20; conditions: Homo sapiens, Lymphocyte, TP53 Mutant
Excerpt: as §1, §2

[5] = tested on: RPMI-2650; conditions: Homo sapiens
Excerpt: as §1, §2

[6] = tested on: SW579; conditions: Homo sapiens, Thyroid gland, TP53 Mutant
Excerpt: as §1, §2

[7] = tested on: C-33 A; conditions: Homo sapiens, Cervix, TP53 Mutant
Excerpt: as §1, §2

[8] = tested on: IM-9; conditions: Homo sapiens
Excerpt: as §1, §2

[9] = tested on: U-2197; conditions: Homo sapiens, Skin, hypodermis, subcutaneous, TP53 Mutant
Excerpt: as §1, §2

[10] = tested on: DLD-1; conditions: Homo sapiens, Intestine, large, colon, TP53 Mutant
Excerpt: as §1, §2

[11] = tested on: MG-63; conditions: Homo sapiens, Bone, TP53 Mutant
Excerpt: as §1, §2

[12] = tested on: NCI-H2227; conditions: Homo sapiens, Lung, TP53 Mutant
Excerpt: as §1, §2

[13] = tested on: SW626; conditions: Homo sapiens, Ovary, TP53 Mutant
Excerpt: as §1, §2

[14] = tested on: HCC827; conditions: Homo sapiens, Lung, TP53 Mutant
Excerpt: as §1, §2

[15] = tested on: NCI-H146; conditions: Homo sapiens, Lung, TP53 Mutant
Excerpt: as §1, §2

[16] = tested on: COLO 205; conditions: Homo sapiens, Intestine, large, colon, TP53 Mutant
Excerpt: as §1, §2

[17] = tested on: HARA-B; conditions: Homo sapiens, Lung, TP53 Mutant
Excerpt: as §1, §2

[18] = tested on: NCI-H1838; conditions: Homo sapiens, Lung, TP53 Mutant
Excerpt: as §1, §2

[19] = tested on: MCF10DCIS•com; conditions: Homo sapiens, Breast, TP53 Wild type
Excerpt: as §1, §2

[20] = tested on: EGI-1; conditions: Homo sapiens, Bile duct, TP53 Mutant
Excerpt: as §1, §2

[21] = tested on: A549; conditions: Homo sapiens
Excerpt: as §1, §2

[22] = tested on: ME-180; conditions: Homo sapiens, Cervix, TP53 Wild type
Excerpt: as §1, §2

[23] = tested on: HCT-15; conditions: Homo sapiens, Intestine, large, colon, TP53 Mutant
Excerpt: as §1, §2

[24] = tested on: Caki-1; conditions: Homo sapiens
Excerpt: as §1, §2

[25] = tested on: SW620; conditions: Homo sapiens, SW-620, Intestine, large, colon, TP53 Mutant
Excerpt: as §1, §2

[26] = tested on: SJCRH30; conditions: Homo sapiens, Muscle, TP53 Mutant
Excerpt: as §1, §2

[27] = tested on: BT-474; conditions: Homo sapiens, Breast, mammary gland, TP53 Mutant
Excerpt: as §1, §2

[28] = tested on: U266B1; conditions: Homo sapiens
Excerpt: as §1, §2

[29] = tested on: COLO-824; conditions: Homo sapiens, Breast, TP53 Wild type
Excerpt: as §1, §2

[30] = tested on: NCI-H1792; conditions: Homo sapiens, Lung, TP53 Mutant
Excerpt: as §1, §2

[31] = tested on: Calu-6; conditions: Homo sapiens, Lung, TP53 Mutant
Excerpt: as §1, §2

[32] = tested on: UM-UC-3; conditions: Homo sapiens, UMUC3, Urinary, bladder, TP53 Mutant
Excerpt: as §1, §2

[33] = tested on: NCI-N87; conditions: Homo sapiens, Stomach, TP53 Mutant
Excerpt: as §1, §2

[34] = tested on: NCI-H1299; conditions: Homo sapiens, Lung, TP53 Mutant
Excerpt: as §1, §2

[35] = tested on: MKN-1; conditions: Homo sapiens, Muscle, smooth, stomach, TP53 Mutant
Excerpt: as §1, §2

[36] = tested on: SK-ES-1; conditions: Homo sapiens, SK-ES1, Bone, TP53 Mutant
Excerpt: as §1, §2

## CCOc1cc(C(C)(C)C)ccc1C1=N[C@@](C)(c2ccc(Cl)cc2)[C@@](C)(c2ccc(Cl)cc2)N1C(=O)N1CCN(CCCS(C)(=O)=O)CC1 [COMPOUND A]
[1]
  IC50: 11 µM
[2]
  IC50: 8.5 µM
[3]
  IC50: 4.7 µM
[4]
  IC50: 13 µM
[5]; RPMI-2650, RPMI-2650, Nasal septum, TP53 Wild type
  IC50: 0.77 µM
[5]; RPMI-2650, RPMI-2650 cells
  IC50: 0.8 µM
[6]
  IC50: 16 µM
[7]
  IC50: 18 µM
[8]; IM-9, IM-9, Lymphocyte B, peripheral blood, TP53 Wild type
  IC50: 0.14 µM
[8]; IM-9, IM-9 cells
  IC50: 0.1 µM
[9]
  IC50: 22 µM
[10]
  IC50: 5.1 µM
[11]
  IC50: 16 µM
[12]
  IC50: 16 µM
[13]
  IC50: 9.5 µM
[14]
  IC50: 8.9 µM
[15]
  IC50: 8.3 µM
[16]
  IC50: 9.1 µM
[17]
  IC50: 10 µM
[18]
  IC50: 9.8 µM
[19]
  IC50: 1.4 µM
[20]
  IC50: 9 µM
[21]; A549, A549, Lung, TP53 Wild type
  IC50: 0.86 µM
[21]; A549, A549 cells
  IC50: 0.9 µM
[22]
  IC50: 9.3 µM
[23]
  IC50: 7.6 µM
[24]; CAKI-1, Caki-1, Kidney, TP53 Wild type
  IC50: 0.37 µM
[24]; CAKI-1, Caki-1 cells
  IC50: 0.4 µM
[25]
  IC50: 9.8 µM
[26]
  IC50: 16 µM
[27]
  IC50: 19 µM
[28]; U266B1, Lymphocyte B, TP53 Mutant
  IC50: 18 µM
[28]; U266B1 cells
  IC50: 18 µM
[29]
  IC50: 15 µM
[30]
  IC50: 7 µM
[31]
  IC50: 17 µM
[32]
  IC50: 15 µM
[33]
  IC50: 12 µM
[34]
  IC50: 15 µM
[35]
  IC50: 15 µM
[36]
  IC50: 25 µM
